Data taken from US11884750B2, “Cationic cell penetrating peptides and the use thereof” (CELLTROY CO., LTD., priority 2021, dated 2024).

Columns and labels:
A-427 cell line = assay: Cell penetration efficiency using lung cells; assay type: cell-based; settings: A-427 lung cells, 4 μM FITC-conjugated CPP, one hour
Description: (§1) Subsequently, to confirm whether the CPPs according to the present invention show excellent cell permeability into different types of cells/tissues, various tissue-derived cells were treated with biologically active molecule-conjugated CPPs to compare its delivery capacity with TAT. As in the previous examples, each cell was aliquoted in a plate at an appropriate density, and cultured in a 10% FBS-added medium under a condition of 37° C. and 5% CO2 for 24 hours. Subsequently, the cells were treated with 4 μM each of FITC-conjugated CPP or FITC-conjugated TAT and incubated for one hour. After the completion of the incubation, the cells were transferred to a sterile tube using 0.25% trypsin and centrifuged to remove the medium. Afterward, the cells were washed with 500 μL of D-PBS twice to completely remove the medium, and finally, resuspended in 400 μL of D-PBS and intracellular fluorescence was measured by flow cytometry (FACSCanto II).

HT1080 cell line = assay: Cell penetration efficiency using connective tissue (fibrosarcoma) cells; assay type: cell-based; settings: 4 μM FITC-conjugated CPP, one hour
Description: as §1

SH-SY5Y cells = assay: Cell penetration efficiency in human neuroblastoma cells, 4 μM, flow cytometry; assay type: cell-based; settings: one hour; for Score / Score/TAT: 4 μM FITC-conjugated peptide; for Score: intracellular fluorescence by flow cytometry; for Score/TAT: ratio to FITC-conjugated TAT; for cell permeability compared with TAT: 4 μM FITC-conjugated CPP, flow cytometry
Description: The cell penetration efficiency of the cationic CPPs selected in Example 1 was evaluated in neuroblastoma. In further detail, SH-SYSY cells, which is a human neuroblastoma cell line, were seeded in 24-well plates to have a cell density of 1×10^7 cells/well, and cultured in 10% FBS-added DMEM under conditions of 37° C. and 5% CO2 for 24 hours. In addition, the cells were treated with 4 μM each of FITC-conjugated CPPs (C12, C14, C16, C31, C52, and C67), or FITC-conjugated TAT, and incubated for one hour. After the termination of the incubation, the cells were transferred to a sterile tube using 0.25% trypsin and centrifuged to remove the medium. Afterward, the cells were washed with 500 μL of D-PBS twice to completely remove the medium, and finally, resuspended in 400 μL of D-PBS and intracellular fluorescence was measured by flow cytometry (FACSCanto II).
(§2) To evaluate the cell penetration efficiency of the additionally selected cationic CPPs, an experiment was conducted using human epidermal cells or human neuroblastoma cells. In further detail, HaCAT cells, which is a human epidermal cell line, or SH-SYSY cells, which is a human neuroblastoma cell line, were seeded in 24-well plates to have a cell density of 1×10^7 cells/well and cultured in 10% FBS-added DMEM under conditions of 37° C. and 5% CO2 for 24 hours. In addition, the cells were treated with 4 μM each of FITC-conjugated peptides and FITC-conjugated TAT for one hour. After the completion of the culture, the cells were transferred to a sterile tube using 0.25% trypsin and centrifuged to remove the medium. Afterward, the cells were washed with 500 μL of D-PBS twice to completely remove the medium, and finally, resuspended in 400 μL of D-PBS and intracellular fluorescence was measured by flow cytometry (FACSCanto II).
as §1

HeLa cell line = assay: Cell penetration efficiency using cervical cancer cells; assay type: cell-based; settings: 4 μM FITC-conjugated CPP, one hour
Description: as §1

HEK293T cell line = assay: Cell penetration efficiency using kidney cells; assay type: cell-based; settings: 4 μM FITC-conjugated CPP, one hour
Description: as §1

HGB cell line = assay: Cell penetration efficiency in glioblastoma cells; assay type: cell-based, human; settings: 4 μM FITC-conjugated CPP, one hour
Description: as §1

HDF cell line = assay: Cell penetration efficiency in skin cells (HDF); assay type: cell-based; settings: 4 μM FITC-conjugated CPP, one hour
Description: as §1

SNU-46 cell line = assay: Cell penetration efficiency using laryngeal cells; assay type: cell-based; settings: SNU-46 laryngeal cells, 4 μM FITC-conjugated CPP, one hour
Description: as §1

HaCAT cells = assay: Cell penetration efficiency in human epidermal (skin) cells, 4 μM, flow cytometry; assay type: cell-based; settings: 4 μM FITC-conjugated CPP, one hour
Description: The cell penetration efficiency of the cationic CPPs selected in Example 1 was evaluated using human epidermal cells. In further detail, HaCAT cells, which is a human epidermal cell line, were seeded in 24-well plates to have a cell density of 1×10^7 cells/well, and cultured in 10% FBS-added DMEM under conditions of 37° C. and 5% CO2 for 24 hours. Subsequently, the cells were treated 4 μM each of the FITC-conjugated CPP or FITC-conjugated TAT, and incubated for one hour. After the termination of the incubation, the cells were transferred to a sterile tube using 0.25% trypsin, and the medium was removed through centrifugation. Afterward, the cells were washed with 500 μL of D-PBS twice to completely remove the medium, and finally, resuspended in 400 μL of D-PBS and intracellular fluorescence was measured by flow cytometry (FACSCanto II).
as §2, §1

| Sequence | cell permeability compared with TAT (A-427 cell line) | cell permeability compared with TAT (HT1080 cell line) | Score (SH-SY5Y cells) | Score/TAT (SH-SY5Y cells) | cell permeability compared with TAT (SH-SY5Y cells) | cell permeability compared with TAT (HeLa cell line) | cell permeability compared with TAT (HEK293T cell line) | cell permeability compared with TAT (HGB cell line) | cell permeability compared with TAT (HDF cell line) | cell permeability compared with TAT (SNU-46 cell line) | cell permeability compared with TAT (HaCAT cells) |
| --- | --- | --- | --- | --- | --- | --- | --- | --- | --- | --- | --- |
| RVRTLLRRRRTERP [C402] | higher cell permeability | higher cell permeability | 437 | 0.842 |  |  |  |  |  |  |  |
| LDRERRRKKAERRP [C312] |  |  | 271 | 0.522 |  |  |  |  |  |  |  |
| ARKNRMARQRRLRP [C45] | higher cell permeability | higher cell permeability | 570 | 1.098 | higher cell permeability |  |  |  |  |  |  |
| ARVRARLRRRRIEP [C229] |  |  | 536 | 1.033 | higher cell permeability | higher cell permeability | higher cell permeability |  |  |  |  |
| RRREPLRARARVRR [C387] |  |  | 560 | 1.079 | higher cell permeability | higher cell permeability | higher cell permeability |  |  |  |  |
| RVAALLRRRRRERP [C202] |  | higher cell permeability | 727 | 1.401 | higher cell permeability | higher cell permeability |  | higher cell permeability |  |  |  |
| RRKVVREKRKRKLP [C203] |  |  | 544 | 1.048 | higher cell permeability | higher cell permeability |  |  |  |  |  |
| RSPARKRVRAQKKR [C360] |  |  | 388 | 0.748 |  |  |  |  |  |  |  |
| RERKRAARKKIKKP [C210] |  |  | 386 | 0.744 |  |  |  |  |  |  |  |
| AVKRRRRRALAKRP [C149] |  |  | 657 | 1.266 | higher cell permeability |  |  |  |  |  |  |
| KARARRILRRRETP [C190] |  |  | 579 | 1.116 | higher cell permeability |  |  | higher cell permeability |  |  |  |
| RPRRKKQVKRIGKR [C379] |  |  | 391 | 0.753 |  | higher cell permeability |  |  |  |  |  |
| RRRQRKEKVRNQKP [C57] |  |  | 0 | 0.000 |  |  |  |  |  |  |  |
| RLREKRRSLKRKRP [C262] | higher cell permeability | higher cell permeability | 345 | 0.665 |  | higher cell permeability | higher cell permeability |  |  |  |  |
| AIKRRRRRALAKRP [C148] |  |  | 669 | 1.289 | higher cell permeability | higher cell permeability |  |  |  |  |  |
| RVRAILRRTRRKEP [C236] |  | higher cell permeability | 395 | 0.761 |  | higher cell permeability | higher cell permeability |  |  |  |  |
| RALRRRLHRQRKLP [C355] |  |  | 497 | 0.958 |  | higher cell permeability | higher cell permeability | higher cell permeability |  |  |  |

| Sequence | cell permeability compared with TAT (A-427 cell line) | cell permeability compared with TAT (HT1080 cell line) | Score (SH-SY5Y cells) | Score/TAT (SH-SY5Y cells) | cell permeability compared with TAT (SH-SY5Y cells) | cell permeability compared with TAT (HeLa cell line) | cell permeability compared with TAT (HEK293T cell line) | cell permeability compared with TAT (HGB cell line) | cell permeability compared with TAT (HDF cell line) | cell permeability compared with TAT (SNU-46 cell line) | cell permeability compared with TAT (HaCAT cells) |
| --- | --- | --- | --- | --- | --- | --- | --- | --- | --- | --- | --- |
| RRALKRRAMRARRP [C170] |  |  | 605 | 1.166 | higher cell permeability | higher cell permeability |  | higher cell permeability | higher cell permeability |  |  |
| RERKRANRKKLKKP [C310] |  |  | 452 | 0.871 |  |  | higher cell permeability | higher cell permeability |  |  |  |
| RVRALARRRRQARP [C282] | higher cell permeability | higher cell permeability | 441 | 0.850 |  | higher cell permeability | higher cell permeability |  |  |  |  |
| RLRAIRRRRRSLDP [C219] |  |  | 453 | 0.873 |  | higher cell permeability |  |  |  |  |  |
| RALKLRRRRRAVLP [C68] |  |  | 0 | 0.000 |  |  |  |  |  |  |  |
| YLRRKLRRRAGEPR [C230] |  |  | 305 | 0.588 |  | higher cell permeability | higher cell permeability |  |  |  |  |
| RALRRRAARAARRP [C37] |  |  | 0 | 0.000 |  |  |  |  |  |  |  |
| RPRRKKQAKRLGKR [C378] |  |  | 400 | 0.771 |  | higher cell permeability |  |  |  | higher cell permeability |  |
| SVKRRRRRALAKRP [C341] |  | higher cell permeability | 747 | 1.439 | higher cell permeability | higher cell permeability | higher cell permeability | higher cell permeability |  |  |  |
| RKVLPRKQKRKRVK [C214] |  |  | 459 | 0.884 |  | higher cell permeability |  |  |  |  |  |
| RLKEERLKKRRRSP [C264] |  |  | 268 | 0.516 |  |  |  |  |  |  |  |
| RVRSLARRARRRTP [C401] | higher cell permeability | higher cell permeability | 425 | 0.819 |  |  |  |  |  |  |  |
| LRRVETLRRRKQPR [C319] |  |  | 436 | 0.840 |  | higher cell permeability | higher cell permeability |  |  |  |  |
| ARRLRRRTAKLPAR [C102] |  |  | 720 | 1.387 | higher cell permeability |  |  | higher cell permeability |  |  | higher cell permeability |
| KARARRILRRREAP [C191] |  |  | 592 | 1.141 | higher cell permeability | higher cell permeability |  | higher cell permeability |  |  |  |
| RPIRKLVRKAREKR [C168] |  |  | 608 | 1.171 | higher cell permeability |  |  | higher cell permeability |  |  |  |
| RIRALARRRDRRRP [C354] | higher cell permeability | higher cell permeability | 564 | 1.087 | higher cell permeability | higher cell permeability | higher cell permeability | higher cell permeability |  |  |  |
